In patent US9340590B2 (priority 2011, dated 2016):
Positions of bridges follow the written chain, without caps; N, C: chain ends. Non-standard residues stand in square brackets, D forms with d. Residues, ends and D or L forms follow the SMILES beside them. *: point of attachment. Phe(4-guanidino) = N=C(N)Nc1ccc(C[C@H](N)C(=O)O)cc1; Cit = NC(=O)NCCC[C@H](N)C(=O)O; Pent4ynoyl = C#CCCC(=O)*; Dab = NCC[C@H](N)C(=O)O; Nva = CCC[C@H](N)C(=O)O; Abu = CC[C@H](N)C(=O)O

Tests used:
Experiment in all cases: cell-based
[1] = target: hNav1.7 (Homo sapiens, UniProt Q15858); type: cell-based; settings: IonWorks Quattro, use-dependent block, hNav1.7; read-out: IWQ Use Nav1.7
[2] = target: hNav1.5 (Homo sapiens, UniProt Q14524); settings: IonWorks Quattro, use-dependent block, hNav1.5; read-out: IWQ Use Nav1.5
[3] = target: hNav1.3 (Homo sapiens, UniProt Q9NY46); settings: IonWorks Quattro, use-dependent block, hNav1.3; read-out: IWQ Use Nav1.3
Sequence of hNav1.3 (Q9NY46 whole entry, looked up): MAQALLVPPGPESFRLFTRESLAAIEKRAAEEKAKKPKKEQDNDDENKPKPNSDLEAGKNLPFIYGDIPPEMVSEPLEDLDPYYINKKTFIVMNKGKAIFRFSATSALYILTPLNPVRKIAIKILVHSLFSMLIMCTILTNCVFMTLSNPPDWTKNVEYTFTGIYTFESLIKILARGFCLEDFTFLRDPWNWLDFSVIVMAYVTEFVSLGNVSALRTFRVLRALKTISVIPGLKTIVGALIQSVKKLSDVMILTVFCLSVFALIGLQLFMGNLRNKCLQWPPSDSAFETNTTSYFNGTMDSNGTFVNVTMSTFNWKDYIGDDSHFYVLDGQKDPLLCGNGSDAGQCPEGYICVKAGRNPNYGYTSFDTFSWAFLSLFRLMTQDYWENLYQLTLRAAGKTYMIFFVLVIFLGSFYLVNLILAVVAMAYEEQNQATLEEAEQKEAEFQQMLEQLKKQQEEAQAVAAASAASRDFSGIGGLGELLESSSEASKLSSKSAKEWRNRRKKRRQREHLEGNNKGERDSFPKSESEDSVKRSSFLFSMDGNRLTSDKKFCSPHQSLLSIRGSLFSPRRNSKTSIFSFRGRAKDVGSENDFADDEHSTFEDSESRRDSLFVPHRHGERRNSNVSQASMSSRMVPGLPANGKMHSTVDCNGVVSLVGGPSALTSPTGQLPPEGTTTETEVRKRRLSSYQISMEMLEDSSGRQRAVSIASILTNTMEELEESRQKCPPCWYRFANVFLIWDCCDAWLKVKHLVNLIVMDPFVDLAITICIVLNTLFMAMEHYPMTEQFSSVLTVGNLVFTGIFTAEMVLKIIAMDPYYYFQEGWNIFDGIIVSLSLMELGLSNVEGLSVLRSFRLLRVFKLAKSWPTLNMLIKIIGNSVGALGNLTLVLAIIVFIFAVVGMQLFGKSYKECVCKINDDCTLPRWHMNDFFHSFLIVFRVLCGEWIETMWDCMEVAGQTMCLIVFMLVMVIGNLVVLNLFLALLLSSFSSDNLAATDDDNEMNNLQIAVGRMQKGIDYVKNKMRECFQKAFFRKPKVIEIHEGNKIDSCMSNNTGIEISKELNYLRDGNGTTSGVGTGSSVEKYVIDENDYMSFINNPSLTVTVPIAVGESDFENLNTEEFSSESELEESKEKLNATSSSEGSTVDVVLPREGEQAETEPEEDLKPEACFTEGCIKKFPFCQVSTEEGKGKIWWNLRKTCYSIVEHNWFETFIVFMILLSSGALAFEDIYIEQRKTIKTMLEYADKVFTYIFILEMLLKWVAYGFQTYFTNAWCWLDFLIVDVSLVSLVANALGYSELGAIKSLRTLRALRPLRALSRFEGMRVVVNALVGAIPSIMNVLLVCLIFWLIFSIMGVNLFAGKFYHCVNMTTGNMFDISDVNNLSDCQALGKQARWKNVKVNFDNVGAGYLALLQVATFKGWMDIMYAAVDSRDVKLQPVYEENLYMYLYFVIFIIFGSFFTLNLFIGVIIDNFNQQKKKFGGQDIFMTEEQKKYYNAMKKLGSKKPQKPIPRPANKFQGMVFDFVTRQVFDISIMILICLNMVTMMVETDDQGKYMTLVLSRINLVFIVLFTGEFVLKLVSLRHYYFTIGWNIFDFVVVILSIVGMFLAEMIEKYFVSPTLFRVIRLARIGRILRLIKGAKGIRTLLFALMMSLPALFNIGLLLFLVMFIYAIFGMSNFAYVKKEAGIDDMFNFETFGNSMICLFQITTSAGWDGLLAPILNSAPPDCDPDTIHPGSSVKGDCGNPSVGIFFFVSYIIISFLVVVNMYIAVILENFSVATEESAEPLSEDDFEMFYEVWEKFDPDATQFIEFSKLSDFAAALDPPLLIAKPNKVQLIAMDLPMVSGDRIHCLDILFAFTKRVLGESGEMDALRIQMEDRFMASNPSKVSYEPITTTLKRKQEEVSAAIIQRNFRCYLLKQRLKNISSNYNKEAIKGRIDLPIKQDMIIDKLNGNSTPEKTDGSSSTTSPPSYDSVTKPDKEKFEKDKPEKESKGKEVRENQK

Sequence of hNav1.7 (Q15858 whole entry, looked up): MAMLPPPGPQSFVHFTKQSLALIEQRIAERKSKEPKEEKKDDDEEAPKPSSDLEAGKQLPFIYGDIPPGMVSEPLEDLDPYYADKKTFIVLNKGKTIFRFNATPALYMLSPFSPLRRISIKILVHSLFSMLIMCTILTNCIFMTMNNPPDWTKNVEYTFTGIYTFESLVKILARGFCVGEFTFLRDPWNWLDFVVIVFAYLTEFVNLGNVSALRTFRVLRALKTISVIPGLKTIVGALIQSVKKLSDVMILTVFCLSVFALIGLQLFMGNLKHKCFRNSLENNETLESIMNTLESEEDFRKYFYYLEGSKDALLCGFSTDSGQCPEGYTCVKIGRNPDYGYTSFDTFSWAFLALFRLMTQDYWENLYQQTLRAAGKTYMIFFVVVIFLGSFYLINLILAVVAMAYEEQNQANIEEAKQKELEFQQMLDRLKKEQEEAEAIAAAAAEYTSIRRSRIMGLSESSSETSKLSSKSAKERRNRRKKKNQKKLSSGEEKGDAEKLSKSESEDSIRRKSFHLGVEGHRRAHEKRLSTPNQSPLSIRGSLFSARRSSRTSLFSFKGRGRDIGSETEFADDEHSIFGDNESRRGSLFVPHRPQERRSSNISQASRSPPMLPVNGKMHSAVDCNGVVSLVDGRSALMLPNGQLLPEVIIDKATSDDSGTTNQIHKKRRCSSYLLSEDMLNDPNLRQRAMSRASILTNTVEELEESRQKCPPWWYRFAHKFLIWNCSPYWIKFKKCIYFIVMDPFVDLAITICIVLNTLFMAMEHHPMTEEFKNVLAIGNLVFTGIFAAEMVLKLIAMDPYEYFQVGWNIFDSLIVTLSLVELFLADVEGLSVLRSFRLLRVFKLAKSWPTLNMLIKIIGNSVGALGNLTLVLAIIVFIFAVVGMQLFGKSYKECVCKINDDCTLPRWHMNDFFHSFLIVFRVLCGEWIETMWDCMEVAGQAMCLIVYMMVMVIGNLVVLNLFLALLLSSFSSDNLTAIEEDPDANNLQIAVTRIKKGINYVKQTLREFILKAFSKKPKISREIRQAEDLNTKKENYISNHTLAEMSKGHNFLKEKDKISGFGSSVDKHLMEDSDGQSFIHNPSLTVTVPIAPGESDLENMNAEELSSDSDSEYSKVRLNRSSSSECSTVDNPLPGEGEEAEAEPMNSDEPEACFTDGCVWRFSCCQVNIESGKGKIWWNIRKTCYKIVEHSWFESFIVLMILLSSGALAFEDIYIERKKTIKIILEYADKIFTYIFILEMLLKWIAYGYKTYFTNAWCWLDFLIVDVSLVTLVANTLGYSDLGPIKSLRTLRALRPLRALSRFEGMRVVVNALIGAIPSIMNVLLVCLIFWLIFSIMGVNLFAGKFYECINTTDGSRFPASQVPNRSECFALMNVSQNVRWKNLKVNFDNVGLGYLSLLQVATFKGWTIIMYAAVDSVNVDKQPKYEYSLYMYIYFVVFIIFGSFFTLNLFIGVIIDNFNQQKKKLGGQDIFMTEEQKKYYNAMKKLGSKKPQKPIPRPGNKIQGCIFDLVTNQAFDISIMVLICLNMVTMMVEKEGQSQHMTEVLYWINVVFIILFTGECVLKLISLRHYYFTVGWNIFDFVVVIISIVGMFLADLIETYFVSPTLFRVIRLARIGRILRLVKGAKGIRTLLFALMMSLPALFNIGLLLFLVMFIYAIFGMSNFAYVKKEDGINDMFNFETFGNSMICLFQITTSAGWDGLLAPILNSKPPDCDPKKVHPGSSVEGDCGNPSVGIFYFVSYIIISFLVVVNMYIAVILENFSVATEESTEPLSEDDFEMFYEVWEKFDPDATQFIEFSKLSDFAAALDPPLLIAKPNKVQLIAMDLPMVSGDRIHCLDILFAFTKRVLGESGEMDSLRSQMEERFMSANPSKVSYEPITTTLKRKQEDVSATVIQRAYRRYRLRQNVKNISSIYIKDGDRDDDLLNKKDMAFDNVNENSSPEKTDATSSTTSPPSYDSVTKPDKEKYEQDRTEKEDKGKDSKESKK

SMILES | IC50 [1] | IC50 [2] | IC50 [3]
C#CCCC(=O)N[C@@H](CC(=O)O)C(=O)N[C@H]1CSSC[C@@H]2NC(=O)[C@@H]3CSSC[C@@H](C(=O)N[C@@H](CCCCN)C(=O)N[C@@H](Cc4ccc(O)cc4)C(=O)N[C@H](C(=O)N[C@@H](Cc4ccccc4)C(N)=O)C(C)C)NC(=O)[C@H](Cc4c[nH]c5ccccc45)NC(=O)[C@H](CCCCN)NC(=O)[C@H](Cc4c[nH]cn4)NC(=O)[C@H]([C@@H](C)O)NC(=O)[C@H](CCCNC(=N)N)NC(=O)[C@H](CO)NC(=O)[C@H](CSSC[C@H](NC(=O)[C@H](CCCCN)NC(=O)[C@H](CCCNC(=N)N)NC(=O)[C@H](CC(C)C)NC(=O)[C@H](CCC)NC(=O)CNC(=O)[C@H](CC(C)C)NC1=O)C(=O)N[C@@H]([C@@H](C)CC)C(=O)N1CCC[C@H]1C(=O)N[C@@H](CC(=O)O)C(=O)N[C@@H](CC)C(=O)N[C@@H](CC(=O)O)C(=O)N[C@@H](CCCCN)C(=O)N3)NC(=O)[C@H](C(C)C)NC(=O)[C@H](CC(C)C)NC(=O)[C@H](CC(N)=O)NC(=O)[C@@H]1CCCN1C(=O)[C@H](CCCNC(=N)N)NC2=O [compound 760] (Pent4ynoyl-DCLG[Nva]LRKCIPD[Abu]DKCCRPNLVCSRTHKWCKYVF-NH2; disulfide 2-17, 9-23, 16-30) | 190 nM | 35200 nM | 250 nM
CC[C@H](C)[C@@H]1NC(=O)[C@@H]2CSSC[C@@H]3NC(=O)[C@H](C(C)C)NC(=O)[C@H](CC(C)C)NC(=O)[C@H](CC(N)=O)NC(=O)[C@@H]4CCCN4C(=O)[C@H](CCCNC(=N)N)NC(=O)[C@H](CSSC[C@H](NC(=O)[C@@H](N)CC(=O)O)C(=O)N[C@@H](CC(C)C)C(=O)NCC(=O)N[C@@H](C)C(=O)N[C@@H](CCSC)C(=O)N[C@@H](CCCNC(=N)N)C(=O)N[C@@H](CCCCN)C(=O)N2)NC(=O)[C@H](CSSC[C@@H](C(=O)N[C@@H](CCCCN)C(=O)N[C@@H](Cc2ccc(O)cc2)C(=O)N[C@H](C(=O)N[C@@H](Cc2ccccc2)C(N)=O)C(C)C)NC(=O)[C@H](Cc2c[nH]c4ccccc24)NC(=O)[C@H](Cc2ccc(NC(=N)N)cc2)NC(=O)[C@H](Cc2c[nH]cn2)NC(=O)[C@H]([C@@H](C)O)NC(=O)[C@H](CCCNC(=N)N)NC(=O)[C@H](CO)NC3=O)NC(=O)[C@H](CCCCN)NC(=O)[C@H](CC(=O)O)NC(=O)[C@H](CC(N)=O)NC(=O)[C@H](CC(=O)O)NC(=O)[C@@H]2CCCN2C1=O [compound 761] (H-DCLGAMRKCIPDNDKCCRPNLVCSRTH[Phe(4-guanidino)]WCKYVF-NH2; disulfide 2-17, 9-23, 16-30) | 160 nM | 26900 nM | 630 nM
CC[C@H](C)[C@@H]1NC(=O)[C@@H]2CSSC[C@@H]3NC(=O)[C@H](C(C)C)NC(=O)[C@H](CC(C)C)NC(=O)[C@H](CC(N)=O)NC(=O)[C@@H]4CCCN4C(=O)[C@H](CCCNC(=N)N)NC(=O)[C@H](CSSC[C@H](NC(=O)[C@@H](N)CC(=O)O)C(=O)N[C@@H](CC(C)C)C(=O)NCC(=O)N[C@@H](C)C(=O)N[C@@H](CCSC)C(=O)N[C@@H](CCCNC(=N)N)C(=O)N[C@@H](CCCCN)C(=O)N2)NC(=O)[C@H](CSSC[C@@H](C(=O)N[C@@H](CCCCN)C(=O)N[C@@H](Cc2ccc(O)cc2)C(=O)N[C@H](C(=O)N[C@@H](Cc2ccccc2)C(N)=O)C(C)C)NC(=O)[C@H](Cc2c[nH]c4ccccc24)NC(=O)[C@H](CCN)NC(=O)[C@H](Cc2c[nH]cn2)NC(=O)[C@H]([C@@H](C)O)NC(=O)[C@H](CCCNC(=N)N)NC(=O)[C@H](CO)NC3=O)NC(=O)[C@H](CCCCN)NC(=O)[C@H](CC(=O)O)NC(=O)[C@H](CC(N)=O)NC(=O)[C@H](CC(=O)O)NC(=O)[C@@H]2CCCN2C1=O [compound 762] (H-DCLGAMRKCIPDNDKCCRPNLVCSRTH[Dab]WCKYVF-NH2; disulfide 2-17, 9-23, 16-30) | 320 nM | 23300 nM | 860 nM
CC[C@H](C)[C@@H]1NC(=O)[C@@H]2CSSC[C@@H]3NC(=O)[C@H](C(C)C)NC(=O)[C@H](CC(C)C)NC(=O)[C@H](CC(N)=O)NC(=O)[C@@H]4CCCN4C(=O)[C@H](CCCNC(=N)N)NC(=O)[C@H](CSSC[C@H](NC(=O)[C@@H](N)CC(=O)O)C(=O)N[C@@H](CC(C)C)C(=O)NCC(=O)N[C@@H](C)C(=O)N[C@@H](CCSC)C(=O)N[C@@H](CCCNC(=N)N)C(=O)N[C@@H](CCCCN)C(=O)N2)NC(=O)[C@H](CSSC[C@@H](C(=O)N[C@@H](CCCCN)C(=O)N[C@@H](Cc2ccc(O)cc2)C(=O)N[C@H](C(=O)N[C@@H](Cc2ccccc2)C(N)=O)C(C)C)NC(=O)[C@H](Cc2c[nH]c4ccccc24)NC(=O)[C@H](Cc2ccccc2)NC(=O)[C@H](Cc2c[nH]cn2)NC(=O)[C@H]([C@@H](C)O)NC(=O)[C@H](CCCNC(=N)N)NC(=O)[C@H](CO)NC3=O)NC(=O)[C@H](CCCCN)NC(=O)[C@H](CC(=O)O)NC(=O)[C@H](CC(N)=O)NC(=O)[C@H](CC(=O)O)NC(=O)[C@@H]2CCCN2C1=O [compound 764] (H-DCLGAMRKCIPDNDKCCRPNLVCSRTHFWCKYVF-NH2; disulfide 2-17, 9-23, 16-30) | 4100 nM | 41400 nM | > 5000 nM
CC[C@H](C)[C@@H]1NC(=O)[C@@H]2CSSC[C@@H]3NC(=O)[C@H](C(C)C)NC(=O)[C@H](CC(C)C)NC(=O)[C@H](CC(N)=O)NC(=O)[C@@H]4CCCN4C(=O)[C@H](CCCNC(=N)N)NC(=O)[C@H](CSSC[C@H](NC(=O)[C@@H](N)CC(=O)O)C(=O)N[C@@H](CC(C)C)C(=O)NCC(=O)N[C@@H](C)C(=O)N[C@@H](CCSC)C(=O)N[C@@H](CCCNC(=N)N)C(=O)N[C@@H](CCCCN)C(=O)N2)NC(=O)[C@H](CSSC[C@@H](C(=O)N[C@@H](CCCCN)C(=O)N[C@@H](Cc2ccc(O)cc2)C(=O)N[C@H](C(=O)N[C@@H](Cc2ccccc2)C(N)=O)C(C)C)NC(=O)[C@H](Cc2c[nH]c4ccccc24)NC(=O)[C@H](Cc2ccc(O)cc2)NC(=O)[C@H](Cc2c[nH]cn2)NC(=O)[C@H]([C@@H](C)O)NC(=O)[C@H](CCCNC(=N)N)NC(=O)[C@H](CO)NC3=O)NC(=O)[C@H](CCCCN)NC(=O)[C@H](CC(=O)O)NC(=O)[C@H](CC(N)=O)NC(=O)[C@H](CC(=O)O)NC(=O)[C@@H]2CCCN2C1=O [compound 765] (H-DCLGAMRKCIPDNDKCCRPNLVCSRTHYWCKYVF-NH2; disulfide 2-17, 9-23, 16-30) | 790 nM | 42000 nM | 1400 nM
CC[C@H](C)[C@@H]1NC(=O)[C@@H]2CSSC[C@@H]3NC(=O)[C@H](C(C)C)NC(=O)[C@H](CC(C)C)NC(=O)[C@H](CC(N)=O)NC(=O)[C@@H]4CCCN4C(=O)[C@H](CCCNC(=N)N)NC(=O)[C@H](CSSC[C@H](NC(=O)[C@@H](N)CC(=O)O)C(=O)N[C@@H](CC(C)C)C(=O)NCC(=O)N[C@@H](C)C(=O)N[C@@H](CCSC)C(=O)N[C@@H](CCCNC(=N)N)C(=O)N[C@@H](CCCCN)C(=O)N2)NC(=O)[C@H](CSSC[C@@H](C(=O)N[C@@H](CCCCN)C(=O)N[C@@H](Cc2ccc(O)cc2)C(=O)N[C@H](C(=O)N[C@@H](Cc2ccccc2)C(N)=O)C(C)C)NC(=O)[C@H](Cc2c[nH]c4ccccc24)NC(=O)[C@H](CC(C)C)NC(=O)[C@H](Cc2c[nH]cn2)NC(=O)[C@H]([C@@H](C)O)NC(=O)[C@H](CCCNC(=N)N)NC(=O)[C@H](CO)NC3=O)NC(=O)[C@H](CCCCN)NC(=O)[C@H](CC(=O)O)NC(=O)[C@H](CC(N)=O)NC(=O)[C@H](CC(=O)O)NC(=O)[C@@H]2CCCN2C1=O [compound 766] (H-DCLGAMRKCIPDNDKCCRPNLVCSRTHLWCKYVF-NH2; disulfide 2-17, 9-23, 16-30) | 1100 nM | 49300 nM | 2700 nM
CC[C@H](C)[C@@H]1NC(=O)[C@@H]2CSSC[C@@H]3NC(=O)[C@H](C(C)C)NC(=O)[C@H](CC(C)C)NC(=O)[C@H](CC(N)=O)NC(=O)[C@@H]4CCCN4C(=O)[C@H](CCCNC(=N)N)NC(=O)[C@H](CSSC[C@H](NC(=O)[C@@H](N)CC(=O)O)C(=O)N[C@@H](CC(C)C)C(=O)NCC(=O)N[C@@H](C)C(=O)N[C@@H](CCSC)C(=O)N[C@@H](CCCNC(=N)N)C(=O)N[C@@H](CCCCN)C(=O)N2)NC(=O)[C@H](CSSC[C@@H](C(=O)N[C@@H](CCCCN)C(=O)N[C@@H](Cc2ccc(O)cc2)C(=O)N[C@H](C(=O)N[C@@H](Cc2ccccc2)C(N)=O)C(C)C)NC(=O)[C@H](Cc2c[nH]c4ccccc24)NC(=O)[C@H](CC(N)=O)NC(=O)[C@H](Cc2c[nH]cn2)NC(=O)[C@H]([C@@H](C)O)NC(=O)[C@H](CCCNC(=N)N)NC(=O)[C@H](CO)NC3=O)NC(=O)[C@H](CCCCN)NC(=O)[C@H](CC(=O)O)NC(=O)[C@H](CC(N)=O)NC(=O)[C@H](CC(=O)O)NC(=O)[C@@H]2CCCN2C1=O [compound 767] (H-DCLGAMRKCIPDNDKCCRPNLVCSRTHNWCKYVF-NH2; disulfide 2-17, 9-23, 16-30) | 1700 nM | > 50000 nM | 3200 nM
CC[C@H](C)[C@@H]1NC(=O)[C@@H]2CSSC[C@@H]3NC(=O)[C@H](C(C)C)NC(=O)[C@H](CC(C)C)NC(=O)[C@H](CC(N)=O)NC(=O)[C@@H]4CCCN4C(=O)[C@H](CCCNC(=N)N)NC(=O)[C@H](CSSC[C@H](NC(=O)[C@@H](N)CC(=O)O)C(=O)N[C@@H](CC(C)C)C(=O)NCC(=O)N[C@@H](C)C(=O)N[C@@H](CCSC)C(=O)N[C@@H](CCCNC(=N)N)C(=O)N[C@@H](CCCCN)C(=O)N2)NC(=O)[C@H](CSSC[C@@H](C(=O)N[C@@H](CCCCN)C(=O)N[C@@H](Cc2ccc(O)cc2)C(=O)N[C@H](C(=O)N[C@@H](Cc2ccccc2)C(N)=O)C(C)C)NC(=O)[C@H](Cc2c[nH]c4ccccc24)NC(=O)[C@H](CCCCN)NC(=O)[C@H](Cc2c[nH]cn2)NC(=O)[C@H]([C@@H](C)O)NC(=O)[C@H](CCCNC(N)=O)NC(=O)[C@H](CO)NC3=O)NC(=O)[C@H](CCCCN)NC(=O)[C@H](CC(=O)O)NC(=O)[C@H](CC(N)=O)NC(=O)[C@H](CC(=O)O)NC(=O)[C@@H]2CCCN2C1=O [compound 768] (H-DCLGAMRKCIPDNDKCCRPNLVCS[Cit]THKWCKYVF-NH2; disulfide 2-17, 9-23, 16-30) | 1800 nM | 23500 nM | 3200 nM
